The conditions of data set [1]: as reported for prior-art products; cited from earlier work.
The conditions of data set [2]: granules in pool water; cited from earlier work.
Data set [3] can be described thus: Dispensing and dissolution of product in swimming pool. It is filed as physicochemical. The conditions noted are these: 5.85 lb dry solid in 20,000 gallon pool, recirculation pump running. How it is done:
The gallon jugs of Examples 2 and 4 were taken to a residential swimming pool of 20,000 gallons estimated volume. The water temperature was 76° F. The sample of Example 2 was mildly shaken and then using a single motion, poured into the 8 foot deep end of the pool near the return pipe from the pump where the turbulence was high. […] Next the gallon jug of Example 4 was emptied into the pool in the same vicinity and same manner. […] The jug was rinsed clean with two aliquots of pool water.
Cyanuric acid wetcake (1405 lb) containing 66% solids is introduced to a 50 cubic foot stainless steel ribbon blender powered by dual 15 HP motors. Soft water (43.9 lb) is added while mixing in the blender. With further blending, solid sodium hydroxide microbeads (288.3 lb) are introduced over a three-minute period. The mixture becomes very hot as evidenced by the large amount of steam that escapes the reaction mixture into the atmosphere. The outside skin of the ribbon blender becomes too hot to touch and a temperature of 130° F. is measured with a digital infrared thermometer. […]
A one-gallon jug of Instant Pool Water Conditioner (Natural Chemistry Inc. of Norwalk, Conn.) was purchased from a local pool store. […] Using a pool brush, the undissolved material was readily dispersed and dissolved with a sweeping action. […]

As to `O=c1[n-]c(=O)[nH]c(=O)[nH]1.[Na+]` [monosodium cyanurate], in data set [1], the pH entry is “neutral”.
`O=c1[nH]c(=O)[nH]c(=O)[nH]1` [cyanuric acid]: the time to dissolve result in data set [2] is “several days”.
Regarding `O=c1[n-]c(=O)[nH]c(=O)[nH]1.[Na+]` [Prospective Example 8, monosodium cyanurate], the “time until all is dissolved” value in data set [3] is not above 30 min.
